Source: patent US12116358B2, “Substituted indoles and methods of use thereof” (EPIZYME, INC., priority 2018, dated 2024)
Where two headings read alike, the source gives them in different places.

What was measured:
SETD2(1434-1711) = biological target: T1, SETD2(1434-1711) (Homo sapiens, UniProt Q9BYW2); assay: SETD2 (1434-1711) assay; format: biochemical; conditions: read-out: SETD2 (1434-1711)
T1 construct: SETD2 (1434-1711) Assay; catalogue N/A
T1 sequence (Q9BYW2 1434-1711): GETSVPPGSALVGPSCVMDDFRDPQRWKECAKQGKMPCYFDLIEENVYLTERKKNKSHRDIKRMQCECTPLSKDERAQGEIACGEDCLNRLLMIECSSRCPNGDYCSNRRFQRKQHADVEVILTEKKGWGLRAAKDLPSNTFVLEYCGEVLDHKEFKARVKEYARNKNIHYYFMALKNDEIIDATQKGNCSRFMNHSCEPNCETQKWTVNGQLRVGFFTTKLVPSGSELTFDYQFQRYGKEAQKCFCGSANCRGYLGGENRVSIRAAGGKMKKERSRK

H3K36me3 in A549 cells = assay: In-Cell Western (ICW) assay of SETD2 inhibitors (A549 assay); format: cell-based, human; conditions: A549 cells, read-out: SETD2 A549
Method in brief: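 H3K36me3 In-Cell Western: cells exposed to compound for 3 days at 4,000 cells/well, 37° C. DRAQ5 (1:1000) marked cell number, with 700/800-channel Licor read-out.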

| Compound | IC50 (SETD2(1434-1711)) [µM] | IC50 (H3K36me3 in A549 cells) [µM] | IC50 (H3K36me3 in A549 cells; Homo sapiens) [µM] |
| --- | --- | --- | --- |
| Cc1ccc(F)c2cc(C(=O)NC3CCCC(N4CCC(N5CCOC5=O)C4)C3)[nH]c12 (stereo not shown) [compound 958] | 0.04 | 0.2 | – |
| Cc1ccc(F)c2cc(C(=O)NC3CCCC(N4CCC(N5CCOC5=O)C4)C3)[nH]c12 (stereo not shown) [compound 959] | 2.3 | > 2 | – |
| CC(=O)N(C)C1CN(C2CCCC(NC(=O)c3cc4c(F)ccc(C)c4[nH]3)C2)C1 (stereo not shown) [compound 960] | 0.02 | > 2 | – |
| CC(=O)N1CC2CCC1CN2C1CCCC(NC(=O)c2cc3c(F)ccc(C)c3[nH]2)C1 (stereo not shown) [compound 961] | 0.03 | 0.4 | – |
| CC(=O)N1CC2CCC1CN2C1CCCC(NC(=O)c2cc3c(F)ccc(C)c3[nH]2)C1 (stereo not shown) [compound 962] | 0.8 | > 2 | – |
| Cc1ccc(F)c2cc(C(=O)NC3CCCC(N4CCC5(CC4)COC(=O)N5)C3)[nH]c12 (stereo not shown) [compound 963] | 0.02 | 0.6 | – |
| Cc1ccc(F)c2cc(C(=O)NC3CCCC(N4CCC5(CC4)COC(=O)N5)C3)[nH]c12 (stereo not shown) [compound 964] | 0.5 | > 2 | – |
| Cc1ccc(F)c2cc(C(=O)NC3CCCC(N4CCC5(CCC(=O)N5CC(F)(F)F)CC4)C3)[nH]c12 (stereo not shown) [compound 965] | 0.02 | 0.2 | – |
| Cc1ccc(F)c2cc(C(=O)NC3CCCC(N4CCC5(CCC(=O)N5CC(F)(F)F)CC4)C3)[nH]c12 (stereo not shown) [compound 966] | 0.6 | > 2 | – |
| CC(=O)N1CCN(C2CCCC(NC(=O)c3cc4c(F)ccc(C)c4[nH]3)C2)CC1C (stereo not shown) [compound 967] | 0.02 | 0.1 | – |
| CC(=O)N1CCN(C2CCCC(NC(=O)c3cc4c(F)ccc(C)c4[nH]3)C2)CC1C (stereo not shown) [compound 968] | 1.9 | > 2 | – |
| Cc1ccc(F)c2cc(C(=O)NC3CCCC(N4CCC(N(C)C(=O)C(C)C)C4)C3)[nH]c12 (stereo not shown) [compound 969] | 0.004 | 0.1 | – |
| Cc1ccc(F)c2cc(C(=O)NC3CCCC(N4CCC(N(C)C(=O)C(C)C)C4)C3)[nH]c12 (stereo not shown) [compound 970] | 5 | > 2 | – |
| Cc1ccc(F)c2cc(C(=O)NC3CCCC(N4CCC(N(C)C(=O)C5CC5)C4)C3)[nH]c12 (stereo not shown) [compound 971] | 0.01 | 0.1 | – |
| Cc1ccc(F)c2cc(C(=O)NC3CCCC(N4CCC(N(C)C(=O)C5CC5)C4)C3)[nH]c12 (stereo not shown) [compound 972] | 4.9 | > 2 | – |
| Cc1ccc(F)c2cc(C(=O)NC3CCCC(N4CCN(C5CCOC5)C(=O)C4)C3)[nH]c12 (stereo not shown) [compound 973] | 0.04 | 0.2 | – |
| Cc1ccc(F)c2cc(C(=O)NC3CCCC(N4CCN(C5CCOC5)C(=O)C4)C3)[nH]c12 (stereo not shown) [compound 974] | 2.6 | > 2 | – |
| Cc1nnc(C2CCCC(NC(=O)c3cc4c(F)ccc(C)c4[nH]3)C2)o1 (stereo not shown) [compound 975] | 0.1 | 0.4 | – |
| Cc1nnc(C2CCCC(NC(=O)c3cc4c(F)ccc(C)c4[nH]3)C2)o1 (stereo not shown) [compound 976] | 6.6 | > 2 | – |
| Cc1ccc(F)c2cc(C(=O)NC3CCCC(N4CCN(C5CC5)C(=O)C4)C3)[nH]c12 (stereo not shown) [compound 977] | 0.02 | 0.2 | – |
| Cc1ccc(F)c2cc(C(=O)NC3CCCC(N4CCN(C5CC5)C(=O)C4)C3)[nH]c12 (stereo not shown) [compound 978] | 2.3 | > 2 | – |
| CC(=O)N1CCCN(C2CCCC(NC(=O)c3cc4c(F)ccc(C)c4[nH]3)C2)CC1 (stereo not shown) [compound 979] | 0.06 | 0.5 | – |
| CC(=O)N1CCCN([C@@H]2CCC[C@@H](NC(=O)c3cc4c(F)ccc(C)c4[nH]3)C2)CC1 [compound 980] | 0.9 | – | > 2 |
| Cc1ccc(F)c2cc(C(=O)NC3CCCC(N4CCCN(S(C)(=O)=O)CC4)C3)[nH]c12 (stereo not shown) [compound 981] | 0.03 | 0.6 | – |
| Cc1ccc(F)c2cc(C(=O)NC3CCCC(N4CCCN(S(C)(=O)=O)CC4)C3)[nH]c12 (stereo not shown) [compound 982] | 1 | > 2 | – |

| Compound | IC50 (SETD2(1434-1711)) [µM] | IC50 (H3K36me3 in A549 cells) [µM] | IC50 (H3K36me3 in A549 cells; Homo sapiens) [µM] |
| --- | --- | --- | --- |
| Cc1ccc(F)c2cc(C(=O)NC3CCCC(N4CCC(N(C)C(=O)CO)C4)C3)[nH]c12 (stereo not shown) [compound 983] | 0.02 | 0.1 | – |
| Cc1ccc(F)c2cc(C(=O)NC3CCCC(N4CCC(N(C)C(=O)CO)C4)C3)[nH]c12 (stereo not shown) [compound 984] | 5.3 | > 2 | – |
| CC(=O)N1CCN(C2COCC(NC(=O)c3cc4c(F)ccc(C)c4[nH]3)C2)CC1 (stereo not shown) [compound 985] | 6.6 | > 2 | – |
| CC(=O)N1CCN(C2COCC(NC(=O)c3cc4c(F)ccc(C)c4[nH]3)C2)CC1 (stereo not shown) [compound 986] | 0.06 | 0.2 | – |
| CC(=O)N1CCN(C2COCC(NC(=O)c3cc4c(F)ccc(C)c4[nH]3)C2)CC1 (stereo not shown) [compound 987] | > 10 | > 2 | – |
| CC(=O)N1CCN(C2COCC(NC(=O)c3cc4c(F)ccc(C)c4[nH]3)C2)CC1 (stereo not shown) [compound 988] | 4.1 | > 2 | – |
| Cc1ccc(F)c2cc(C(=O)NC3CCCC(N4CCn5c(nnc5C(F)(F)F)C4)C3)[nH]c12 (stereo not shown) [compound 989] | 0.1 | 0.8 | – |
| Cc1ccc(F)c2cc(C(=O)N[C@@H]3CCC[C@@H](N4CCn5c(nnc5C(F)(F)F)C4)C3)[nH]c12 [compound 990] | 3.2 | – | > 2 |
| Cc1ccc(F)c2cc(C(=O)N[C@@H]3CCC[C@H](N4CCn5cncc5C4)C3)[nH]c12 [compound 991] | 0.06 | – | 0.3 |
| Cc1ccc(F)c2cc(C(=O)N[C@@H]3CCC[C@@H](N4CCn5cncc5C4)C3)[nH]c12 [compound 992] | 1.9 | – | > 2 |
| Cc1ccc(F)c2cc(C(=O)N[C@@H]3CCC[C@H](N4CCn5c(cnc5C(F)(F)F)C4)C3)[nH]c12 [compound 993] | 0.04 | – | 0.2 |
| Cc1ccc(F)c2cc(C(=O)N[C@@H]3CCC[C@@H](N4CCn5c(cnc5C(F)(F)F)C4)C3)[nH]c12 [compound 994] | 1.8 | – | > 2 |
| Cc1ccc(F)c2cc(C(=O)NC3CCCC(N4CCC(N(C)C(=O)CO)C4)C3)[nH]c12 (stereo not shown) [compound 995] | 0.008 | 0.03 | – |
| Cc1ccc(F)c2cc(C(=O)NC3CCCC(N4CCC(N(C)C(=O)CO)C4)C3)[nH]c12 (stereo not shown) [compound 996] | 0.8 | > 2 | – |
| Cc1ccc(F)c2cc(C(=O)NC3CCCC(N4CCN(C(=O)OC(C)C)CC4)C3)[nH]c12 (stereo not shown) [compound 997] | 0.01 | 0.08 | – |
| Cc1ccc(F)c2cc(C(=O)NC3CCCC(N4CCN(C(=O)OC(C)C)CC4)C3)[nH]c12 (stereo not shown) [compound 998] | 1.5 | > 2 | – |
| Cc1ccc(F)c2cc(C(=O)N[C@@H]3CCC[C@H](N4CCN(C(=O)OC5CCOCC5)CC4)C3)[nH]c12 [compound 999] | 0.01 | – | 0.06 |
| Cc1ccc(F)c2cc(C(=O)NC3CCCC(N4CCN(C(=O)OC5CCOCC5)CC4)C3)[nH]c12 (stereo not shown) [compound 1000] | 1.5 | > 2 | – |
| Cc1ccc(F)c2cc(C(=O)N[C@@H]3CCC[C@H](N4CCC(N(C)C)C4=O)C3)[nH]c12 (stereo partly shown) [compound 1002] | 1.2 | – | 1.8 |
| Cc1ccc(F)c2cc(C(=O)N[C@@H]3CCC[C@H](c4ccncn4)C3)[nH]c12 [compound 1003] | 0.03 | – | 0.2 |
| CC(=O)N1CCN([C@@H]2C[C@H](NC(=O)c3cc4c(F)ccc(C)c4[nH]3)CN(C)C2)CC1 [compound 1006] | 1 | – | 1.8 |
| CC(=O)N1CCC([C@H]2CCC[C@@H](NC(=O)c3cc4c(F)ccc(C)c4[nH]3)C2)CC1 [compound 1007] | 0.006 | – | 0.02 |
| Cc1nc([C@H]2CCC[C@@H](NC(=O)c3cc4c(F)ccc(C)c4[nH]3)C2)no1 [compound 1011] | 0.3 | – | 0.9 |
| Cc1ccc(F)c2cc(C(=O)N[C@@H]3CCC[C@H](c4nccc(=O)[nH]4)C3)[nH]c12 [compound 1013] | 0.706 | – | > 2 |
| Cc1ccc(F)c2cc(C(=O)N[C@@H]3CCC[C@H](c4noc(CN(C)C)n4)C3)[nH]c12 [compound 1014] | 0.2 | – | 0.7 |
